Entries after “also recorded” stand apart in the source; their conditions may differ. Like-named read-outs stand apart in the source and are kept apart here.
What was measured:
[1] = tested on: conditioned avoidance (avoidance failure); assay: Conditioned Avoidance Test by Shuttle Box; format: in vivo, rats of Wistar strain (male); settings: for ED50: read-out: ED50 and Its Confidence Limit; for Potency Ratio: conditioned avoidance ED50, relative to haloperidol = 1.0
Source text: Use was made of a shuttle box consisted of two chambers divided by a plate with a square hole. The floor of each chamber was made of steel-rod grid which can be charged electrically. The whole apparatus was maintained in a sound proof room. The training schedule was as follows. Each trial was initiated by supplying the sound of buzzer as conditioned stimulus for 3 seconds. Unless the rats escaped to another compartment […] thereafter, the grid floor was electrified for 4 seconds as unconditioned stimulus. Each rat was trained for more than 2 weeks with a daily session of 30 trials at an interval of 60 seconds.
Six rats per group were subjected to 10 consecutive trails 1, 2, 4, 6, 8 and 10 hours after medication, respectively. In this case, a 3-second interval was taken between the termination of the conditioned stimulus and the onset of the unconditioned one. ED50 values at each time were calculated from the average percentages of avoidance failure.

[2] = tested on: gnawing (stereotyped behavior induced by apomorphine); assay: Anti-apomorphine Test in Rats; format: in vivo, rats of Wistar strain (male); settings: for ED50: read-out: ED50 and Its Confidence Limit; for Potency Ratio: anti-apomorphine ED50, relative to haloperidol = 1.0
Description: Six male rats of Wistar strain weighing 120 to 200 g were used at each dosage level. […] The effect against apomorphine was taken as positive when gnawing behavior was not noticed during the observation period of 1 minute. ED50 was calculated from the dose inhibition percet relationship.

[3] = tested on: stereotyped behavior induced with methamphetamine hydrochloride; assay: Anti-methamphetamine Test in Rats; settings: for ED50: Rattus norvegicus, po, read-out: ED50 and Its Confidence Limit; for Potency Ratio: anti-methamphetamine ED50, relative to haloperidol = 1.0; for suppressing methamphetamine-induced stereotypy: rat, oral, in words
catalepsy [4] = assay: Catalepsy Test in Rats; settings: for Potency Ratio: catalepsy ED50, relative to haloperidol = 1.0; for dissociation between the dose effective against methamphetamine and the dose inducing catalepsy / catalepsy: rat, oral, in words; for dissociation between the dose effective against methamphetamine and the dose inducing catalepsy: comparison of anti-methamphetamine and catalepsy tests
Description: (§1) After medication, both legs of the rats were put on a horizontal metal bar, 12 cm apart from the floor, and the rats were forced to stand on hind legs. Observation of rat behavior was made 1, 2, 4, 6, 8, 10, 12 and 24 hours later.

Catalepsy Test in Rats = settings: rat, in vivo, po
Description: as §1

in vivo = settings: rat, po
Description: as §1

catalepsy [5] = settings: rat, in vivo
Description: as §1

[6] = rat, oral, apomorphine 1.25 mg/kg i.v., time of maximum effect 2 hrs

| SMILES | ED50 ([1]; Rattus norvegicus, po, 4 h) | Potency Ratio [1] | ED50 ([2]; Rattus norvegicus, po, 1 h) | Potency Ratio [2] | ED50 ([3]; 2 h) | Potency Ratio [3] | Potency Ratio (catalepsy [4]) | dissociation between the dose effective against methamphetamine and the dose inducing catalepsy (catalepsy [4]) | ED50 at 8 h (Catalepsy Test in Rats) | ED50 ([1]; shuttle box, rat, oral, time of maximum effect 6 hrs) | ED50 [2, 6] | suppressing methamphetamine-induced stereotypy [3] | catalepsy (catalepsy [4]) | ED50 at 10 h (Catalepsy Test in Rats) | ED50 ([1]; shuttle box, rat, oral, time of maximum effect 4 hrs) | ED50 ([3]; 1 h) | ED50 at 8 h (in vivo) | ED50 ([2]; Rattus norvegicus, po, 2 h) | Potency Ratio (catalepsy [5]) |
| --- | --- | --- | --- | --- | --- | --- | --- | --- | --- | --- | --- | --- | --- | --- | --- | --- | --- | --- | --- |
| O=C(CCCN1CCC(n2c(O)nc3ccccc32)CC1)c1ccc(F)cc1 [Benperidol, reference compound] | 0.81 mg/kg | 0.7 | 0.62 mg/kg | 1.1 | 0.44 mg/kg | 1.1 | 0.95 | exhibit both the effects at almost the same dose level; also recorded: exhibit simultaneously both desired and undesired side-effects to almost the same extent at their effective dosages | 0.92 mg/kg |  |  |  |  |  |  |  |  |  |  |
| O=C(CCCN1CCC(n2c(S)nc3ccccc32)CC1)c1ccc(F)cc1 [Compound A, 1-[1-(3-(4-fluorobenzoyl)propyl)-4-piperidyl]-2-mercaptobenzimidazole] |  | 8.8 |  | 7.5 | 0.054 mg/kg | 8.9 | 3.5 | marked dissociation |  | 0.06 mg/kg | 0.095 mg/kg | highly effective in suppressing methamphetamine-induced stereotypy | produce catalepsy only in higher doses | 0.25 mg/kg |  |  |  |  |  |
| CSc1nc2ccccc2n1C1CCN(CCCC(=O)c2ccc(F)cc2)CC1 [Compound B, 1-[1-(3-(4-fluorobenzoyl)propyl)-4-piperidyl]-2-methylmercaptobenzimidazole] |  | 1.6 |  | 1.7 |  | 2.8 | 1.3 | marked dissociation |  |  | 0.41 mg/kg | highly effective in suppressing methamphetamine-induced stereotypy | produce catalepsy only in higher doses | 0.68 mg/kg | 0.34 mg/kg | 0.17 mg/kg |  |  |  |
| O=C(CCCN1CCC(O)(c2ccc(Cl)cc2)CC1)c1ccc(F)cc1 [Haloperidol, reference compound] | 0.53 mg/kg |  |  |  |  |  |  | exhibit both the effects at almost the same dose level; also recorded: exhibit simultaneously both desired and undesired side-effects to almost the same extent at their effective dosages |  |  |  |  |  |  |  | 0.48 mg/kg | 0.88 mg/kg | 0.71 mg/kg | 1.0 |

— US3963727A, “1,2 Disubstituted benzimidazole derivatives” (Daiichi Seiyaku Co., Ltd., priority 1975, dated 1976)
